Data published in patent publication US6946277B2, “Method for enhancing cellobiase activity of termitomyces clypeatus using a glycosylation inhibitor” (Council of Scientific and Industrial Research, priority 2001, dated 2005).

Assays:
[1] = test system: Termitomyces clypeatus; assay: Cellobiase activity of culture filtrate of Termitomyces clypeatus grown with glycosylation inhibitors (p-nitro phenyl β-D-glucoside substrate); assay type: cell-based; conditions: for Maximum cellobiase activity: Termitomyces clypeatus in presence of 2-deoxyglucose
Protocol: (§1) The fungus is maintained in agar slants containing (w/w) glucose 5%, potato extract 10%, malt extract 5%, KH2PO4 0.087%, MgSO4, 7H2O 0.05%. Cultivation of the fungus is carried out between temperatures 20-37° C., preferably at 28-30° C. and at pH between 3-8, preferably at 4-6, under aerobic condition in shake flask in liquid medium on a rotary shaker (200-300 strokes per minute). Among the assimilable carbon sources (cellobiose, mannose, fructose, xylose, arabinose, starch, dextrin, cellulose, cotton, xylan and agrowastes like baggasse powder, rice-straw powder, wheat bran, corn cob powder, corn powder; in presence of TCA cycle acids like succinate, fumarate, maleate or amino acids like aspartate, glutamate, serine, histidine and alanine or glucose analogues like D-glucosamine) D-cellobiose with succinate served as one of the best carbon sources in the concentration range of 0.5-2%(w/v). Among the assimilable nitrogen sources (ammonium chloride, ammonium nitrate, ammonium di hydrogen phosphate, potassium nitrate and organic nitrogen sources such as malt extract, yeast extract, potato extract, soya-peptone and bactopeptone) ammonium di hydrogen phosphate was used. Among the glycosylation inhibitors (Tunicamycin, deoxynojirimycin, 2-deoxy-D-glucose and D-glucono-lactone) 2-deoxy glucose was preferred (Table 1). Detergents used were Tween 20, Tween-80, or Tween-100. Initial pH of the medium may be maintained at 3-7, preferably at 4.5. Inoculum is prepared in the medium in polypropylene conical flask with sterile glass balls (1-1.5 cm in diameter) 3-4 numbers in 250-ml flask. The fine mycelia grown in liquid medium after 2-4 days of growth were added to the fermentation medium at the ratio of 1:10 (v/v). Optimum production of enzyme took place after 3 days of inoculation, between 4-6th days. The culture filtrate is freed from mycelia by any known method of filtration. Cellobiase activity of the culture medium was assayed using p-nitro phenyl β-D-glucoside as substrate. Reference may be made to Khowala. S. And Sengupta. S. (1992) Enzyme and microbial Technology, volume 14, pages144-149. One unit of activity was taken as the amount of enzyme, which could liberate one micromole of p-nitro phenol from p-nitro phenyl β-D-glucoside in the reaction mixture incubated at 50° C. for 30 minutes (Table 1 and 2). Endo-glucanase and cellobiohydrolase activities were measured by dinitrosalicylic acid reagent using carboxy methylcellulose (Sigma chemical co.) and crystalline cellulose (Sigma chemical co.) respectively as substrate (Table 2). Reference may be made to Sumner J. B. and Sumner G. (1949) in Laboratory Experiments in Chemistry, Academic press, New York, page 38. One unit of enzyme was considered as the amount of enzyme that could liberate one micromole of glucose equivalent per minute in buffer at pH 5.0 at 50° C.
[…] The 250 ml conical flask containing 50 ml of medium were autoclaved for 20 minutes at 15 pounds per square inch pressure, where separately autoclaved ammonium di hydrogen orthophosphate at the concentration of 2.4% w/w was added to the medium after sterilization. The medium was cooled and was inoculated at the rate of 10% mycelia (blended) of the fungus developed earlier in flasks with glass marbles. The culture was grown in the medium for 4 days at temperatures 28°-32° C. on a rotary-shaker. The culture filtrate was freed from mycelia and the clear supernatant was used as a source of enzymes. Cellobiase activity was 90 units per ml, endo-glucanase was 4.5 units per ml, and cellobiohydrolase was 3.5 units per ml, respectively. Cellobiase activity in absence of 2-deoxy-D-glucose in the control medium was 1.44 units per ml.
The fungus Termitomyces clypeatus IICB-411 was grown in a medium containing (w/w, %): Cellobiose 1, 2-deoxy-D-glucose 0.5, mannose 0.5, sodium succinate 0.5, KH2PO4 0.087, MgSO4, 7H2O 0.05 at pH 4.5. […]

[2] = test system: Trichoderma reesei; conditions: cited from earlier work
[3] = test system: T. clypeatus; assay: Growth of the fungus T. clypeatus in presence of 2-deoxy-D-glucose; assay type: cell-based, Termitomyces clypeatus; conditions: at higher concentrations (above 0.05 to 5% w/v)
From the text: The inventive step is the addition of 2-deoxy-D-glucose in the growth medium in presence of assimilable carbon and nitrogen sources and other nutrients. 2-deoxy-D-glucose is non-fermentable analogue of glucose and mannose, and is known to interfere in formation of wall polysaccharides in yeast [Reference may be made to European Journal of Biochemistry (1975), Volume 54, pages 459-467] and to increase protein secretion in Trichoderma reesei [Reference may be made to Journal of General Microbiology (1989) Volume 135, pages 301-307]; but it acts as a glycosylation inhibitor, increases synthesis and secretion of extracellular proteins in Termitomyces clypeatus, when used in the concentration range of 0.05 to 5%(w/v) and high cellobiase activity is produced in presence of cellobiose, as determined in the applicants laboratory.

[4] = test system: Termitomyces clypeatus; assay: Endo-glucanase activity of culture filtrate (carboxy methylcellulose, dinitrosalicylic acid reagent); assay type: cell-based; conditions: for endo-glucanase: 4 days, pH 4.5
Protocol: as §1
(§2) The fungus Termitomyces clypeatus IICB-411 was grown in a medium containing (w/w, %): Cellobiose 1, 2-deoxy-D-glucose 0.30, sodium succinate 0.5, KH2PO4 0.087, MgSO4, 7H2O 0.05 at pH 4.5. The 250 ml conical flask containing 50 ml of medium were autoclaved for 20 minutes at 15 pounds per square inch pressure, where separately autoclaved ammonium di hydrogen orthophosphate at the concentration of 2.4% w/w was added to the medium after sterilization. The medium was cooled and was inoculated at the rate of 10% mycelia (blended) of the fungus developed earlier in flasks with glass marbles. The culture was grown in the medium for 4 days at temperatures 28°-32° C. on a rotary-shaker. The culture filtrate was freed from mycelia and the clear supernatant was used as a source of enzymes. Cellobiase activity was 90 units per ml, endo-glucanase was 4.5 units per ml, and cellobiohydrolase was 3.5 units per ml, respectively. Cellobiase activity in absence of 2-deoxy-D-glucose in the control medium was 1.44 units per ml. […]

[5] = test system: Termitomyces clypeatus; assay: Cellobiohydrolase activity of culture filtrate (crystalline cellulose, dinitrosalicylic acid reagent); assay type: cell-based; conditions: for cellobiohydrolase: 4 days, pH 4.5
Protocol: as §1, §2

[6] = test system: Dichomitus squalenes; assay: Cellobiase activity of Dichomitus squalenes in a similar medium; assay type: cell-based; conditions: Dichomitus squalenes in presence of 2-deoxyglucose
[7] = Control medium + 2-deoxy-D-glucose 300 μg/ml (Example 2), Table 2
[8] = Control medium + 2-deoxy-D-glucose 1 mg/ml + Mannose 500 μg/ml
[9] = Control medium + 2-deoxyglucose 1 mg/ml (Example 1), Table 2
[10] = Example 1: 2-deoxy-D-glucose 0.30 % w/w
[11] = Example 2: 2-deoxy-D-glucose 0.5 % + mannose 0.5 % w/w
[12] = Example 3: 2-deoxy-D-glucose 1 % w/w

O=C1O[C@H](CO)[C@@H](O)[C@H](O)[C@H]1O [glucono-lactone, D-glucono-lactone]
Cellobiase activity ([1]; Control + glucono-lactone 2 mg/ml): 6.1820 units/ml

OC[C@H]1NC[C@H](O)[C@@H](O)[C@@H]1O [1-deoxynojirimycin]
Cellobiase activity ([1]; Control + 1-deoxynojirimycin 80 μM): 1.4085 units/ml

O=CC[C@@H](O)[C@H](O)[C@H](O)CO [2-deoxy-D-glucose]
biosynthesis of extracellular as well as intracellular protein ([2]; 2-deoxy-D-glucose 0-150 μg/ml): inhibited | Cellobiase activity ([1]; Control + 2-deoxy-D-glucose 0.05 mg/ml): 2.236 units/ml | Cellobiase activity ([1]; Control + 2-deoxy-D-glucose 1 mg/ml): 50.097 units/ml | Cellobiase activity ([1]; Control + 2-deoxy-D-glucose 5 mg/ml): 0.081 units/ml | Cellobiase activity [1, 7]: 90.020 units/ml | Cellobiase activity [1, 8]: 140.60 units/ml | Cellobiase activity [1, 9]: 50.097 units/ml | Cellobiase activity ([1]; Example 1: 2-deoxy-D-glucose 0.30 % w/w, 4 days, pH 4.5): 90 units per ml | Cellobiase activity ([1]; Example 2: 2-deoxy-D-glucose 0.5 % + mannose 0.5 % w/w, 4 days, pH 4.5): 140 units per ml | Cellobiase activity ([1]; Example 3: 2-deoxy-D-glucose 1 % w/w, 4 days, pH 4.5): 50 units per ml | Maximum cellobiase activity ([1]; Example-1): 90.0 U/ml | Maximum cellobiase activity ([1]; Example-2): 140.0 U/ml | Maximum cellobiase activity ([1]; Example-3): 50.0 U/ml | enhanced production and secretion of enzyme ([1]; at lower concentrations): the effect is not observed | growth of the fungus [3]: inhibit growth | Endo-glucanase activity [4, 7]: 4.637 units/ml | Endo-glucanase activity [4, 8]: 1.086 units/ml | Endo-glucanase activity [4, 9]: 4.112 units/ml | endo-glucanase [4, 10]: 4.5 units per ml | endo-glucanase [4, 11]: 6 units per ml | endo-glucanase [4, 12]: 4 units per ml | Cellobiohydrolase activity [5, 7]: 3.600 units/ml | Cellobiohydrolase activity [5, 8]: 4.873 units/ml | Cellobiohydrolase activity [5, 9]: 3.546 units/ml | cellobiohydrolase [5, 10]: 3.5 units per ml | cellobiohydrolase [5, 11]: 3.5 units per ml | cellobiohydrolase [5, 12]: 3.5 units per ml | Maximum cellobiase activity [6]: 0.05^C U/ml

Tunicamycin
effect on secretion of proteins ([2]; Tunicamycin 0-50 μg/ml): no effect | Cellobiase activity ([1]; Control + Tunicamycin 10 μg/ml): 1.2075 units/ml
